Source: publication PMC7529893, “Structural basis for substrate recognition and chemical inhibition of oncogenic MAGE ubiquitin ligases” (Nature Communications, 2020)

Target: T1, MAGE-A11:PCF11 interaction (GST-MAGE-A11 and FAM-PCF11_4) (Homo sapiens, UniProt P43364)
T1 construct: GST-MAGE-A11 MHD (human MAGE-A11 MHD amino acid 218-429); made in house; host or cells: E. coli BL21(DE3)
T1 sequence (P43364 218-429): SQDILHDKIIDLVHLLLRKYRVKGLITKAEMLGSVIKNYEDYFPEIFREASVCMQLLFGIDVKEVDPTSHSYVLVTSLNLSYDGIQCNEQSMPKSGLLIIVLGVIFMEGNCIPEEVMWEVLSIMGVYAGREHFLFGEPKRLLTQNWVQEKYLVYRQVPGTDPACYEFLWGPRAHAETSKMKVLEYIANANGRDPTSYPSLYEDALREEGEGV
Assay: TR-FRET primary / single point screen at 15 µM
Type: binding
Method in brief: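 Single-point screen at 15 µM final compound in 50 mM Tris pH 7.5, 20 mM MgCl2, 0.1 mg/ml BSA, 1 mM DTT, with 200 nM FAM-PCF11_4, 5 nM Tb-anti-GST and 5 nM GST-MAGE-A11. After 90 min at room temperature, the 520/490 nm TR-FRET ratio (340 nm excitation) gave %Inhibition against no-MAGE-A11 and DMSO controls.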

[1] = single point TR-FRET screening of 797 quinoline compounds against MAGE-A11:PCF11
[2] = single point TR-FRET screening of quinoline compounds against MAGE-A11:PCF11, 15 µM

Row | Structure (SMILES) | percent inhibition (TR-FRET) [1] | percent inhibition (TR-FRET) [2]
1 | CCOc1ccc2ncc(C(=O)c3ccc(C)cc3)c(N3CCN(CC)CC3)c2c1 [SJ000247284] | -14.2514 | 
2 | CN1CCN(c2c(S(=O)(=O)c3ccc(Cl)cc3)cnc3ccccc23)CC1 [SJ000247306] | -10.1441 | 
3 | CCc1ccc2ncc(S(=O)(=O)c3ccc(C)c(C)c3)c(N3CCN(C)CC3)c2c1 [SJ000247332] | 2.973 | 
4 | COc1ccc2ncc(S(=O)(=O)c3ccc(C)c(C)c3)c(N3CCN(C)CC3)c2c1 [SJ000247333] | -8.554 | 
5 | CCc1ccc2ncc(S(=O)(=O)c3ccc(C)c(C)c3)c(N3CCN(CC)CC3)c2c1 [SJ000247334] | -4.712 | 
6 | CCN1CCN(c2c(S(=O)(=O)c3ccc(C)c(C)c3)cnc3ccc(OC)cc23)CC1 [SJ000247335] | -4.579 | 
7 | CN1CCN(c2c(C(=O)c3ccccc3)cnc3ccc(Cl)cc23)CC1 [SJ000247338] | -5.573 | 
8 | CCOc1ccc(C(=O)c2cnc3ccc(C)cc3c2N2CCN(CC)CC2)cc1 [SJ000247339] | -10.8066 | 
9 | Cc1ccc(S(=O)(=O)c2cnc3ccc(F)cc3c2N2CCN(C)CC2)cc1C [SJ000247344] | -7.6267 | 
10 | CCN1CCN(c2c(S(=O)(=O)c3ccc(C)c(C)c3)cnc3ccc(F)cc23)CC1 [SJ000247345] | 1.118 | 
11 | CCOc1ccc2ncc(S(=O)(=O)c3ccc(C)c(C)c3)c(N3CCN(C)CC3)c2c1 [SJ000247354] | -14.0527 | 
12 | CCOc1ccc2ncc(S(=O)(=O)c3ccc(C)c(C)c3)c(N3CCN(CC)CC3)c2c1 [SJ000247355] | -13.3902 | 
13 | CCN1CCN(c2c(C(=O)c3ccccc3)cnc3ccc(OC)cc23)CC1 [SJ000247365] | -0.2733 | 
14 | CCN1CCN(c2c(S(=O)(=O)c3ccc(Cl)cc3)cnc3ccccc23)CC1 [SJ000247367] | -2.261 | 
15 | CCc1ccc(S(=O)(=O)c2cnc3ccccc3c2N2CCN(C)CC2)cc1 [SJ000278939] | 11.585 | 
16 | CCOC(=O)c1cnc2c(Cl)cccc2c1NCCCN1CCOCC1 [SJ000279431] |  | 4.102
17 | CCOC(=O)c1cnc2ccc(OC)cc2c1N1CCN(C)CC1 [SJ000279507] | -2.791 | 
18 | CCOC(=O)c1cnc2ccc(OCC)cc2c1NCCCN1CCOCC1 [SJ000279525] |  | 5.532
19 | CCOC(=O)c1cnc2ccc(OCC)cc2c1N1CCN(C)CC1 [SJ000279526] | -7.064 | 
20 | CCOC(=O)c1cnc2c(C)cccc2c1NCCCN1CCOCC1 [SJ000279636] |  | 3.353
21 | CCOC(=O)c1cnc2ccc(C(=O)OC)cc2c1NCCCN1CCOCC1 [SJ000279665] |  | 10.7073
22 | CCOC(=O)c1cnc2c(CC)cccc2c1NCCN1CCOCC1 [SJ000279714] | -6.103 | 
23 | CCOC(=O)c1cnc2ccc(F)cc2c1NCCCN1CCOCC1 [SJ000279864] |  | -0.3915
24 | CCOC(=O)c1cnc2ccc(C(=O)O)cc2c1N1CCN(CCO)CC1 [SJ000280902] | -0.5958 | 
25 | CCOC(=O)c1cnc2c(C(F)(F)F)cccc2c1NCCN1CCOCC1 [SJ000281260] | 0.8341 | 

Row | Structure (SMILES) | percent inhibition (TR-FRET) [1] | percent inhibition (TR-FRET) [2]
26 | CCN(CC)CCCC(C)Nc1ccnc2cc(Cl)ccc12 (centres unmarked) [SJ000285185] | -2.592 | 
27 | CCN(CC)CCCC(C)Nc1c2ccc(Cl)cc2nc2ccc(OC)cc12 (centres unmarked) [SJ000285202] | -265.674 | 
28 | CCN(CCO)CCCC(C)Nc1ccnc2cc(Cl)ccc12 (centres unmarked) [SJ000286026] | 3.702 | 
29 | Clc1ccc2c(NC3CCN(Cc4ccc(Cl)o4)CC3)ccnc2c1 [SJ000311180] | 0.6827 | 
30 | Oc1ccc(Br)cc1CN1CCC(Nc2ccnc3cc(Cl)ccc23)CC1 [SJ000311181] | -1.209 | 
31 | Clc1ccc2c(NCCCN(Cc3ccccc3)CC3CC=CCC3)ccnc2c1 (centres unmarked) [SJ000311182] |  | 16.0865
32 | CC(C)CCN(CCCNc1ccnc2cc(Cl)ccc12)Cc1ccccc1 [SJ000311183] |  | 2.673
33 | CC(CCN(CCCNc1ccnc2cc(Cl)ccc12)Cc1ccccc1)c1ccccc1 (centres unmarked) [SJ000311184] |  | 17.3464
34 | Cc1ccsc1CNCCCNc1ccnc2cc(Cl)ccc12 [SJ000311189] |  | 6.554
35 | Cc1ccc(CNCCCNc2ccnc3cc(Cl)ccc23)s1 [SJ000311190] |  | 10.8349
36 | CCCN(CCCNc1ccnc2cc(Cl)ccc12)Cc1ccc(Br)o1 [SJ000311195] |  | 14.4758
37 | CCCN(CCCCNc1ccnc2cc(Cl)ccc12)Cc1cc(Br)ccc1O [SJ000311196] | 5.724 | 
38 | CCCN(CCCCNc1ccnc2cc(Cl)ccc12)CCCSC [SJ000311197] | 3.903 | 
39 | CCCN(CCCCNc1ccnc2cc(Cl)ccc12)Cc1ccc[nH]1 [SJ000311198] | -0.9977 | 
40 | CCCN(CCCCNc1ccnc2cc(Cl)ccc12)Cc1sccc1C [SJ000311199] | 6.494 | 
41 | CCCN(CCCCNc1ccnc2cc(Cl)ccc12)Cc1ccoc1 [SJ000311200] | 12.3053 | 
42 | CCCN(CCCCNc1ccnc2cc(Cl)ccc12)Cc1cc(F)ccc1OC [SJ000311202] | 5.3962 | 
43 | CCCN(CCCCNc1ccnc2cc(Cl)ccc12)Cc1c(F)cccc1OC [SJ000311203] | 6.844 | 
44 | CCCN(CCCCNc1ccnc2cc(Cl)ccc12)Cc1c[nH]c2ccccc12 [SJ000311204] | -3.378 | 
45 | CCCN(CCCCNc1ccnc2cc(Cl)ccc12)Cc1ccccc1 [SJ000311205] | 7.684 | 
46 | c1ccc(Oc2ccc3c(NCCCNCc4ccco4)ccnc3c2)cc1 [SJ000311206] |  | 14.5885
47 | COc1ccccc1Oc1ccc2c(NCCCNCc3ccco3)ccnc2c1 [SJ000311210] |  | 24.558
48 | COc1cccc(Oc2ccc3c(NCCCNCc4ccco4)ccnc3c2)c1 [SJ000311214] |  | 29.109
49 | COc1ccc(Oc2ccc3c(NCCCNCc4ccco4)ccnc3c2)cc1 [SJ000311218] |  | 36.2507
50 | Fc1ccc(Oc2ccc3c(NCCCNCc4ccco4)ccnc3c2)cc1 [SJ000311222] |  | 9.365

Row | Structure (SMILES) | percent inhibition (TR-FRET) [1] | percent inhibition (TR-FRET) [2]
51 | Clc1ccc(Oc2ccc3c(NCCCNCc4ccco4)ccnc3c2)cc1 [SJ000311226] |  | 37.651
52 | CN(C)c1cccc(Oc2ccc3c(NCCCNCc4ccco4)ccnc3c2)c1 [SJ000311230] |  | 63.4168
53 | CC(C)(C)c1ccc(Oc2ccc3c(NCCCNCc4ccco4)ccnc3c2)cc1 [SJ000311234] |  | 57.5354
54 | Fc1ccc(-c2ccc3c(NCCCNCc4ccco4)ccnc3c2)cc1 [SJ000311238] |  | 27.4287
55 | CC(C)CCc1ccc2c(NCCCNCc3ccco3)ccnc2c1 [SJ000311246] |  | 13.0054
56 | c1coc(CNCCCNc2ccnc3cc(CC4CCCCC4)ccc23)c1 [SJ000311250] |  | 40.6616
57 | c1ccc(CCc2ccc3c(NCCCNCc4ccco4)ccnc3c2)cc1 [SJ000311254] |  | 15.9461
58 | CC(C)Cc1ccc2c(NCCCNCc3ccco3)ccnc2c1 [SJ000311258] |  | 8.8745
59 | c1coc(CNCCCNc2ccnc3cc(C4CCCCC4)ccc23)c1 [SJ000311262] |  | 32.9599
60 | CCC(CC)c1ccc2c(NCCCNCc3ccco3)ccnc2c1 [SJ000311266] |  | 24.558
61 | FC(F)(F)c1cc(-c2ccc3c(NCCCNCc4ccco4)ccnc3c2)cc(C(F)(F)F)c1 [SJ000311270] |  | 59.7059
62 | c1coc(CNCCCNc2ccnc3cc(-c4cccc5ccccc45)ccc23)c1 [SJ000311274] |  | 41.5719
63 | FC(F)(F)c1ccc(-c2ccc3c(NCCCNCc4ccco4)ccnc3c2)cc1 [SJ000311278] |  | 56.2051
64 | c1ccc(-c2ccc3c(NCCCNCc4ccco4)ccnc3c2)cc1 [SJ000311282] |  | 28.689
65 | CC(C)(C)c1ccc(-c2ccc3c(NCCCNCc4ccco4)ccnc3c2)cc1 [SJ000311286] |  | 73.499
66 | c1coc(CNCCCNc2ccnc3cc(-c4ccc5c(c4)OCO5)ccc23)c1 [SJ000311290] |  | 30.7894
67 | COc1ccc(-c2ccc3c(NCCCNCc4ccco4)ccnc3c2)cc1 [SJ000311294] |  | 7.824
68 | FC(F)(F)c1cccc(Cc2ccc3c(NCCCNCc4ccco4)ccnc3c2)c1 [SJ000311298] |  | 27.0086
69 | N#Cc1ccc(Cc2ccc3c(NCCCNCc4ccco4)ccnc3c2)cc1 [SJ000311302] |  | 20.4271
70 | c1ccc(Cc2ccc3c(NCCCNCc4ccco4)ccnc3c2)cc1 [SJ000311306] |  | 64.537
71 | COc1cc(Cc2ccc3c(NCCCNCc4ccco4)ccnc3c2)cc(OC)c1 [SJ000311310] |  | 23.7879
72 | Clc1cccc(Cl)c1Cc1ccc2c(NCCCNCc3ccco3)ccnc2c1 [SJ000311314] |  | 32.3998
73 | Cc1cc(C)cc(Cc2ccc3c(NCCCNCc4ccco4)ccnc3c2)c1 [SJ000311318] |  | 39.3055
74 | Fc1ccc(Cc2ccc3c(NCCCNCc4ccco4)ccnc3c2)c(Cl)c1 [SJ000311322] |  | 24.7681
